Laboratory results from PubChem BioAssay (NCI).
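Each compound was tested at five concentrations against cells in 96-well plates for 48 hours. Abbreviation: GI50, concentration required for 50% inhibition of growth. TGI denotes the concentration required for complete inhibition of growth.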

How the values were obtained:
Experiment in all cases: DTP human tumour cell line panel, 48 h
[1] = test system: CCRF-CEM leukemia
[2] = test system: SN12C renal
[3] = test system: PC-3 prostate
[4] = test system: K-562 leukemia
[5] = test system: UACC-257 melanoma
[6] = test system: A498 renal
[7] = test system: A549 NSCLC
[8] = test system: HOP-62 NSCLC
[9] = test system: SW-620 colon
[10] = test system: ACHN renal
[11] = test system: MOLT-4 leukemia
[12] = test system: IGROV1 ovarian
[13] = test system: NCI-H522 lung
[14] = test system: COLO 205 colon
[15] = test system: KM12 colon
[16] = test system: MDA-MB-435
[17] = test system: MALME-3M melanoma
[18] = test system: SK-MEL-28 melanoma
[19] = test system: HCC-2998 colon
[20] = test system: SK-MEL-5 melanoma
[21] = test system: T-47D breast
[22] = test system: HS 578T breast
[23] = test system: UACC-62 melanoma
[24] = test system: HOP-92 NSCLC
[25] = test system: SR leukemia
[26] = test system: HT29 colon
[27] = test system: TK-10 renal
[28] = test system: OVCAR-8 ovarian
[29] = test system: 786-0 renal

COc1cc2c3c(n(CCCN4CCCC4)c(=O)c2cc1OC)-c1cc2c(cc1C3=O)OCO2
GI50 [1]: 67.3 nM | TGI [1]: 2310 nM | GI50 [2]: 1650 nM | TGI [2]: 3380 nM | GI50 [3]: 1470 nM | TGI [3]: 3840 nM | GI50 [4]: 216 nM | TGI [4]: 895 nM | GI50 [5]: 1490 nM | TGI [5]: 3210 nM | GI50 [6]: 5530 nM | TGI [6]: 10800 nM | GI50 [7]: 1400 nM | TGI [7]: 2850 nM | GI50 [8]: 650 nM | TGI [8]: 2460 nM | GI50 [9]: 624 nM | TGI [9]: 3450 nM | GI50 [10]: 1360 nM | TGI [10]: 2670 nM | GI50 [11]: < 17.9 nM | TGI [11]: 1610 nM | GI50 [12]: 1420 nM | TGI [12]: 3090 nM | GI50 [13]: 789 nM | TGI [13]: 2520 nM | GI50 [14]: 1110 nM | TGI [14]: 2550 nM | GI50 [15]: 1610 nM | TGI [15]: 3230 nM | GI50 [16]: 1590 nM | TGI [16]: 3120 nM | GI50 [17]: 1500 nM | TGI [17]: 3220 nM | GI50 [18]: 1710 nM | TGI [18]: 3380 nM | GI50 [19]: 1380 nM | TGI [19]: 2800 nM | GI50 [20]: 4250 nM | TGI [20]: 9120 nM | GI50 [21]: 4700 nM | TGI [21]: 11100 nM | GI50 [22]: 2030 nM | TGI [22]: 5080 nM | GI50 [23]: 1480 nM | TGI [23]: 3480 nM | GI50 [24]: 1930 nM | TGI [24]: 3940 nM | GI50 [25]: 51.4 nM | TGI [25]: 590 nM | GI50 [26]: 1320 nM | TGI [26]: 2760 nM | GI50 [27]: 1930 nM | TGI [27]: 3460 nM | GI50 [28]: 1360 nM | TGI [28]: 3090 nM | GI50 [29]: 1320 nM | TGI [29]: 2900 nM
